# Measurements reported in article PMC8692984 (Frontiers in Pharmacology, 2021).
# Key:
# [1] = molecular target: T1, α7 nAChRs (Homo sapiens, UniProt P36544); experiment: cell-based; conditions: Choline EC50 ± SEM at PNU120596-α7 nAChRs
# [2] = molecular target: T1, α7 nAChRs; experiment: cell-based; conditions: Choline EC50 ± SEM at TQS-α7 nAChRs
# T1 sequence (P36544 23-502): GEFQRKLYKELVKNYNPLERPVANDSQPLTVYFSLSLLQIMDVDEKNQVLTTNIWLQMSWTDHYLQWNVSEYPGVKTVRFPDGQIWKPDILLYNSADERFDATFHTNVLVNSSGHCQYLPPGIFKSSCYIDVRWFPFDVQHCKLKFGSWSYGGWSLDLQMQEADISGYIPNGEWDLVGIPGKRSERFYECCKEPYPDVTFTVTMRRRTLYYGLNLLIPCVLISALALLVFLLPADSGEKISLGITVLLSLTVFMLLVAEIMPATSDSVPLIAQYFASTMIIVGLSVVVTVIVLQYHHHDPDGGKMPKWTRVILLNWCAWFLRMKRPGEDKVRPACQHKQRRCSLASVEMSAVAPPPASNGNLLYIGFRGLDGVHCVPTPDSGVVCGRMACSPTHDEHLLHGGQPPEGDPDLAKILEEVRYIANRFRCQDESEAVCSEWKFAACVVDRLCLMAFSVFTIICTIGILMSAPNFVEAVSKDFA
smiles,measurement,setting,value
"C[N+](C)(C)CCO [Choline, reference compound]",EC50,[1],3 ± 0.26 µM
same,EC50,[2],9 ± 0.9 µM
